From patent US7960130B2, “Method for activation of transient receptor potential cation channel, subfamily A, member 1 using acetaldehyde” (Korea University Industry and Academy Cooperation Foundation, priority 2008, dated 2011)
“Also recorded” adds a separate entry of the source.

What was measured:
hTRPA1 = target: T1, hTRPA1 (Homo sapiens, UniProt O75762); test: Fluo-3 calcium imaging of hTRPA1-transfected HEK293T cells; assay type: cell-based; settings: for elevation of intracellular calcium levels in hTRPA1-expressing cells: 1 mM acetaldehyde, 300 μM cinnamaldehyde, 10 mM acetic acid, 1% methanol, 1% ethanol; for suppression of acetaldehyde-evoked intracellular calcium influx (hTRPA1): 1 mM acetaldehyde + 2 mM camphor or 10 μM ruthenium red, n=12
T1 construct: expressed in transfected cells; host or cells: HEK293T (ATCC CRL-11268), pcDNA3.1
Method: (§1) Particularly, the HEK293T cell line was transiently transfected with individual TRP channel plasmid (pcDNA3.1 containing polynucleotide encoding hTRPA1, rTRPV2, rTRPV1 or mTRPV4; pcDNA5/FRT containing polynucleotide encoding mTRPA1, hTRPV3 or mTRPM8) 3 μg per 35-mm dish and 600 ng/well of pcDNA3 (Invitrogen Corp., USA; containing green fluorescent protein (GFP) cDNA) using Fugene6 (Roche Diagnostics, USA) according to manufacturer's instruction. The transformed cells were cultured in DMEM/F12 containing 10% FBS and 1% penicillin/streptomycin in a CO2 incubator for 24 hours. The cells were replated onto poly-L-lysine-coated glass coverslips, followed by further culture for 10-24 hours.
(§2) Stock solutions were made using water or ethanol, and were diluted with test solutions before use.
(§3) Calcium imaging was performed with a confocal microscope (LSM5 Pascal, Carl Zeiss, Germany), and time-lapse images (488 nm excitation/514 nm emission) were collected every 3 seconds using Carl Zeiss ratio tool software (Carl Zeiss, Germany).
as §2

trigeminal neurons [1] = test: Fluo-3 calcium imaging of cultured mouse trigeminal neurons; settings: 1 μM PGE2 + modulator: SC-51089 10 μM, U73122 3 μM, U73343 3 μM, BIM 1 μM, chelerythrine 1 μM, H-89 10 μM
mTRPA1 = target: T2, mTRPA1 (Mus musculus, UniProt Q8BLA8); test: Fluo-3 calcium imaging of mTRPA1-transfected HEK293T cells; assay type: cell-based; settings: 1 mM acetaldehyde + 2 mM camphor or 10 μM ruthenium red, n=21
T2 construct: expressed in transfected cells; host or cells: HEK293T (ATCC CRL-11268), pcDNA5/FRT
Method: as §1, §3, §2

ICR mice = test: Acute hindpaw licking/flicking behavioral analysis; settings: for suppression of acetaldehyde-evoked licking/flicking behaviors: 100 mM acetaldehyde, 1 mM ruthenium red, 100 μM or 1 mM GdCl3 injected 5 min prior; for suppression of acetaldehyde-evoked licking/flicking behaviors / suppression of cinnamaldehyde-evoked licking/flicking behaviors: 10 mM camphor; for suppression of cinnamaldehyde-evoked licking/flicking behaviors: 10 mM cinnamaldehyde, 100 μM or 1 mM GdCl3, intradermal
Method: This analysis was performed in accordance with protocols approved by the University Committee on Laboratory Animals. Mice were acclimated for 1 h to the test environment prior to experiments. Drugs dissolved in vehicle (PBS containing 0.5% Tween 80) were injected into mice right hindpaws intradermally.

trigeminal neurons [2] = test: Whole-cell voltage-clamp recording of cultured trigeminal neurons; assay type: cell-based, mouse; settings: 1 mM acetaldehyde, co-application of 20 μM GdCl3 and 2 mM camphor
Method: Trigeminal ganglia were dissected out of decapitated adult ICR mice in cold PBS and treated with 1.5 mg/Ml of collagenase/dispase (Roche Diagnostics, USA) at 37 °C for 45 min, and then treated with 0.25% trypsin (Invitrogen, USA) for 15 min. The trigeminal neurons prepared thereby were then plated onto poly-L-lysine-coated coverslips in DMEM/F12 containing 10% FBS, 1% penicillin/streptomycin and 5 ng/Ml of 2.5S NGF (Invitrogen, USA), nerve growth factor (Invitrogen), followed by culture in a CO2 incubator for 48-72 hours.
Particularly, the extracellular solution (140 mM NaCl, 5 mM KCl, 2 mM CaCl2, 1 mM MgCl2, 10 mM HEPES; titrated to pH 7.4 with NaOH) and the pipette solution (140 mM CsCl, 5 mM EGTA, 10 mM HEPES, 2.0 mM MgATP, 0.2 mM NaGTP; titrated to pH 7.2 with CsOH) were used. The potential was holded at −60 mV for 250 ms, voltage-ramp pulsed from −80 mV to +80 mV for […] and returned to −60 mV for 250 ms, which was repeated without intersweep. This experiment was repeated 5 times.
The trigeminal neurons prepared by the same manner as described in Example 2 were delayed-treated with 1 mM acetaldehyde, followed by treatment of 20 μM GdCl3 (a TRPA1 blocker gadolinium; Sigma-Aldrich, USA) and 2 mM camphor. Then, whole-cell voltage-clamp recording was performed by the same manner as described in Example <5-2>.

TRPA1 = test: Whole-cell voltage-clamp recording of TRPA1 transfected cell line; assay type: cell-based
Method: as §1, §2
This experiment was repeated 5 times.

T1 sequence (O75762 whole entry): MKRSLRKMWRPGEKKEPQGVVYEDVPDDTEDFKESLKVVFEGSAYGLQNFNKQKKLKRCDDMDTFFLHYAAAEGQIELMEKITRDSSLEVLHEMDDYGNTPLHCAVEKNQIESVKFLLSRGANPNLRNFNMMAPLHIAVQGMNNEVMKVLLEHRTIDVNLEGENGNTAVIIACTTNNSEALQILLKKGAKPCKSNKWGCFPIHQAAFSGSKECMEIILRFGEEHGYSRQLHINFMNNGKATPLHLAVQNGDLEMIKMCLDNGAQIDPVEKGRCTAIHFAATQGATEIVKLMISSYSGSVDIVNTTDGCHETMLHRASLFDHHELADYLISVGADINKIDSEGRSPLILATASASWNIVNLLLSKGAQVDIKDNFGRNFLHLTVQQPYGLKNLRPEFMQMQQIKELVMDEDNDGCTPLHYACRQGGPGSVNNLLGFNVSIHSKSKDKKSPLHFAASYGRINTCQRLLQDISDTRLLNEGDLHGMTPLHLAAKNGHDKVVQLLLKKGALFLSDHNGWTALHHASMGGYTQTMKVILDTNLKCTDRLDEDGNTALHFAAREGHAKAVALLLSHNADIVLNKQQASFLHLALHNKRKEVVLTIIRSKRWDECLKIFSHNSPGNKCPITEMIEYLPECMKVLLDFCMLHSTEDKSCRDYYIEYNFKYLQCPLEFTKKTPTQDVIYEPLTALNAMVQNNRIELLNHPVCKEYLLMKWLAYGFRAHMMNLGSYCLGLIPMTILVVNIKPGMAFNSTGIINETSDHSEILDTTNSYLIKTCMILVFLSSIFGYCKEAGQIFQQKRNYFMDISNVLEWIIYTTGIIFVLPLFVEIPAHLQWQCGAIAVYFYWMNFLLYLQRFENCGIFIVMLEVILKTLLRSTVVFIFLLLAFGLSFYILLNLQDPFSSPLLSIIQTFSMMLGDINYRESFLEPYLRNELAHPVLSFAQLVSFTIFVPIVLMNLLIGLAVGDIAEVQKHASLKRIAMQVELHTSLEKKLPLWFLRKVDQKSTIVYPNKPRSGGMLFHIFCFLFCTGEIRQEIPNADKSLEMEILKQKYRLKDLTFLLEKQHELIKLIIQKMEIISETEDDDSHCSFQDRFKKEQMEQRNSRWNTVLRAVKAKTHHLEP
T2 sequence (Q8BLA8 whole entry): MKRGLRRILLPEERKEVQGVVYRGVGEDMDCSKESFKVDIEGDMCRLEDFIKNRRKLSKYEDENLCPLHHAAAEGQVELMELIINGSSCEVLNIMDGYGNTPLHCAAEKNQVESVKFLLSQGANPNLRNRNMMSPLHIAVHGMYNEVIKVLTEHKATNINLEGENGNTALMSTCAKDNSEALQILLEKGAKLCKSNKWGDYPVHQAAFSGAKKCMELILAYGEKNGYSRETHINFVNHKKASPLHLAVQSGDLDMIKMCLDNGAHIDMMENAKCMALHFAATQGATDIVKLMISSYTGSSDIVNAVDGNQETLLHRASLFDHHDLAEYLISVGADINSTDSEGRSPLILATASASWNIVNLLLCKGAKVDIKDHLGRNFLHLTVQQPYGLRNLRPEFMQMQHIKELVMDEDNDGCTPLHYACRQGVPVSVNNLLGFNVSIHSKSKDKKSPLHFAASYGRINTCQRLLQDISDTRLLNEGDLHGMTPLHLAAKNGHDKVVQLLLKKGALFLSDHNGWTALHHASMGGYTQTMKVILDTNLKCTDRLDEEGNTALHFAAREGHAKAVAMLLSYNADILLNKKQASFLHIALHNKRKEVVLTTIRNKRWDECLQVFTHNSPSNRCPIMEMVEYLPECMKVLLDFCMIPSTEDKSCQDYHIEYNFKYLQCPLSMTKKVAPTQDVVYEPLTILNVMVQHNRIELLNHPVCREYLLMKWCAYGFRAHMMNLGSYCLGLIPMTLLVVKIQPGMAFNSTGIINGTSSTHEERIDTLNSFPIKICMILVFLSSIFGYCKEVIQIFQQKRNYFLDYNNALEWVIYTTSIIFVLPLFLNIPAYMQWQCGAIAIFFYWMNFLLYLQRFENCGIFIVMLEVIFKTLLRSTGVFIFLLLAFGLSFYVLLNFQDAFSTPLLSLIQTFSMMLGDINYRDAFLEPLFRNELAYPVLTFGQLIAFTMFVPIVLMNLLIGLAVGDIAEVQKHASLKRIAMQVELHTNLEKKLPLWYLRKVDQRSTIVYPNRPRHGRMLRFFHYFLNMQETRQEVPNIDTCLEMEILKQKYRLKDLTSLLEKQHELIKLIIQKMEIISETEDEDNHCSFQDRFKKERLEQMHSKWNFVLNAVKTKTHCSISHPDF

`CO` [methanol] was tested, and the “elevation of intracellular calcium levels in hTRPA1-expressing cells” value (hTRPA1) was “failed to elevate intracellular calcium levels”.
For `O=S(=O)(NCCNC/C=C/c1ccc(Br)cc1)c1cccc2cnccc12` [H-89], the “suppression of the PGE2-induced potentiation of acetaldehyde responses” value (from here on “suppression … of acetaldehyde responses”) (trigeminal neurons [1]) was “did not suppress”.
`CCO` [ethanol] was tested, and the “elevation of intracellular calcium levels in hTRPA1-expressing cells” value (hTRPA1) was “failed to elevate intracellular calcium levels”.
For `COc1ccc2c(c1)CC[C@@H]1[C@@H]2CC[C@]2(C)[C@@H](NCCCCCCN3C(=O)CCC3=O)CC[C@@H]12` [U73343], the “suppression … of acetaldehyde responses” value (trigeminal neurons [1]) was “did not suppress”.
In the case of bisindolmaleimide [BIM], the “suppression … of acetaldehyde responses” value (trigeminal neurons [1]) is reported as “significantly suppressed”.
With SC-51089 the “suppression … of acetaldehyde responses” value (trigeminal neurons [1]) was “significantly suppressed”.
With `N.N.N.N.N.N.N.N.N.N.N.N.N.N.[Cl-].[Cl-].[Cl-].[Cl-].[Cl-].[Cl-].[O-2].[O-2].[Ru+3].[Ru+3].[Ru+4]` [ruthenium red] the “suppression of acetaldehyde-evoked intracellular calcium influx (hTRPA1)” value (hTRPA1) was “so did; also recorded: suppressed”, the “suppression of acetaldehyde-evoked intracellular calcium influx (mTRPA1)” value (mTRPA1) was “suppressed” and the “suppression of acetaldehyde-evoked licking/flicking behaviors” value (ICR mice; intradermal) was “suppressed”.
In the case of `[Cl][Gd]([Cl])[Cl]` [GdCl3], the “inhibition of acetaldehyde-evoked current in trigeminal neurons” value (trigeminal neurons [2]) is reported as “inhibited”, the “suppression of nociceptive behaviors at a micromolar dose” value (ICR mice; 100 μM GdCl3, intradermal) is reported as “significantly suppress” and the “suppression of cinnamaldehyde-evoked licking/flicking behaviors” value (ICR mice) is reported as “suppressed”. For the same compound, the “suppression of acetaldehyde-evoked licking/flicking behaviors” value (ICR mice; intradermal) was “suppressed”.
For `CC(=O)O` [acetic acid], the “elevation of intracellular calcium levels in hTRPA1-expressing cells” value (hTRPA1) was “failed to elevate intracellular calcium levels”.
`CC12CCC(CC1=O)C2(C)C` (stereo not drawn) [camphor] was tested, and the “suppression of acetaldehyde-evoked intracellular calcium influx (hTRPA1)” value (hTRPA1) was “completely suppressed”, the “suppression of acetaldehyde-evoked intracellular calcium influx (mTRPA1)” value (mTRPA1) was “suppressed” and the “inhibition of acetaldehyde-evoked current in TRPA1 expressing cells” value (TRPA1; 1 mM acetaldehyde + 2 mM camphor) was “inhibited”. The “inhibition of acetaldehyde-evoked current in trigeminal neurons” value (trigeminal neurons [2]) was “inhibited”, the “suppression of cinnamaldehyde-evoked licking/flicking behaviors” value (ICR mice) was “suppressed” and the “duration of suppressive effect on PGE2-potentiated sensitization” value (ICR mice; 100 mM acetaldehyde + 1 μM PGE2 + 10 mM camphor) was 8 min. For the same compound, the “suppression of the effect of co-injection of acetaldehyde and PGE2” value (ICR mice; 100 mM acetaldehyde + 1 μM PGE2 + 10 mM camphor, intradermal) was “suppressed” and the “suppression of acetaldehyde-evoked licking/flicking behaviors” value (ICR mice; intradermal) was “suppressed”.
With `COc1ccc2c(c[n+](C)c3c4cc5c(cc4ccc23)OCO5)c1OC` [chelerythrine] the “suppression … of acetaldehyde responses” value (trigeminal neurons [1]) was “significantly suppressed”.
For `O=CC=Cc1ccccc1` [cinnamaldehyde], the “elevation of intracellular calcium levels in hTRPA1-expressing cells” value (hTRPA1) was “TRPA1-specific responses; also recorded: responded”, the “whole-cell current response in TRPA1 expressing cells” value (TRPA1; 1 mM acetaldehyde, 300 μM cinnamaldehyde, voltage ramp -80 to +80 mV, n=5) was “responsive” and the “acute hindpaw licking/flicking behavior elicited” value (ICR mice; intradermal into hindpaw, 10 μl, 100 mM acetaldehyde or 10 mM cinnamaldehyde, 10 min, n=5) was “time spent in licking/flicking behaviors increased”.
For `COc1ccc2c(c1)CC[C@@H]1[C@@H]2CC[C@]2(C)[C@@H](NCCCCCCN3C(=O)C=CC3=O)CC[C@@H]12` [U73122], the “suppression … of acetaldehyde responses” value (trigeminal neurons [1]) was “significantly suppressed”.
